Results as given in patent publication US9409983B2, “Methods and compositions involving PBEF inhibitors for lung inflammation conditions and diseases” (The Board of Trustess of the University of Illinois, priority 2009, dated 2016).
“Also recorded” adds a separate entry of the source.

What was measured:
[1] = tested on: rat peritoneal neutrophils; test: Transmigration and chemotaxis assay (Transwell); type: cell-based; conditions: rhPBEF (10 ng/ul) or casein in lower chamber, up to 4 hours
Protocol: Chemotaxis of rat peritoneal neutrophils (calcein-AM) across 3 μm polycarbonate filters was assessed in response to recombinant human PBEF/visfatin (rhPBEF, PeproTech, Rocky Hill, N.J.), or casein (positive control). (See Supplemental Methods for additional details).
Neutrophils were collected from retired breeder male Harlan-Sprague Dawley rats by intraperitoneal injection of 2.5% casein (5 ml). The resulting peritoneal fluid was recovered by PBS peritoneal lavage after 18 hr, centrifuged and examined for total cell counts and cell differentiation. For chemotaxis assays, leukocytes were exposed to calcein-AM in the presence of plurionic acid for 1 hr at room temperature. The temperature was then elevated to 37° C. for 30 min to cleave the calcein AM thereby reducing the rate of calcein diffusion out of the cells. […] The receiving wells were assessed serially in a fluorescent plate reader with absorption at 494 nm and emission measured at 517 nm. Fluorescence was recorded at 5, 10, 15, 30 min and each subsequent 30 min period for up to 4 hr. Aliquots of known numbers of neutrophils were counted in separate wells at each time point to account for any quenching of the fluorescence over time.

C57BL/6 mice [2] = test: rhPBEF challenge in limited ventilator-induced lung injury model (VILIa, 30 ml/kg); type: in vivo, mouse
Protocol: (§1) The first VILI model was designed to produce limited lung injury (VILIa, tidal volume 30 ml/kg), thus allowing assessment of potential synergy with rhPBEF challenge. Male C57BL/6J B6 mice were anesthetized with ketamine/acepromazine, intubated and administered rhPBEF (20 μg/mouse) via an intratracheal (IT) route ˜30 min before ventilator placement (room air, tidal volume 30 ml/kg, 65 breaths/minute, 0 cm H2O PEEP) for 4 hr as previously described (Nonas et al., 2007; Moitra et al., 2007). Groups included a spontaneous breathing group (SB), a spontaneous breathing group challenged with rhPBEF (SB-rhPBEF), a high tidal ventilation group (VILIa), and a high tidal ventilation group with rhPBEF challenge (VILIa-rhPBEF) (n=4-6 all groups).
(§2) BAL fluid recovered as we previously described was used for multiple assays including total BAL protein, and BAL cell differentials (Peng et al., 2004). Tissue albumin content was assessed as previously described (Nonas et al., 2007). Cytokine levels in BAL fluid (IL-1β, IL-6, KC, MIP2, TNF-α) were analyzed by multiplex assays (Bio-Rad, Hercules, Calif., USA). BAL PBEF levels were assayed by a C-terminal ELISA (Phoenix Pharmaceuticals Inc. Belmont, Calif.) and analyzed using the SoftmaxPRO software (Molecular Devices Corp). (See Supplemental Methods).
(§3) We utilized two experimental models of ventilator-induce lung injury in these experiments. Our first approach (VILIa) utilized a VILI protocol with a tidal volume of 30 ml/kg designed to produce limited lung injury in order to allow assessment of potential synergism between delivered PBEF and mechanical ventilation-induced lung injury. Male C57BL/6J mice (8-12 wk old, 24.7±2.0 g) were weighed, anesthetized with ketamine/acepromazine, intubated using a 20 gauge catheter (Medex, Inc, Carlsbad, Calif.) and administered recombinant PBEF (20 μg/mouse in 1.5 μl water per gram body weight or vehicle equal volumes of water) via an intratracheal (IT) route ˜30 min before being placed on mechanical ventilation as we have previously described (Peng et al., 2004). Mice were then connected to Harvard Apparatus ventilator (Boston, Mass.) at room air, tidal volume of 30 ml/kg, 65 breaths/minute, and positive expiratory pressure (PEEP) 0 cm H2O for 4 hr. Groups of mice were randomly allocated to either the spontaneous breathing group (SB) (n=4), the spontaneous breathing challenged with IT rhPBEF group (SB-rhPBEF) (n=6), the high tidal ventilation group (VILIa) (n=6), or high tidal ventilation with rhPBEF group (VILIa-rhPBEF) (n=6). Normal saline (0.2 cc) was given via intraperitoneal injection at the beginning and 2 hours later to all ventilated mice and peak inspiratory pressure was monitored continuously. Temperature was maintained with heat blanket to all mice during experiment.
(§4) Mice underwent bronchioalveolar lavage (BAL) of both lungs with Hank's balanced salt solution (1 mL/mouse), and the recovered BAL fluid was used for assays as we have previously described (Peng et al., 2004). Total protein was measured using the Bio-Rad DC Protein Assay (Bio-Rad Laboratories, Hercules, Calif.) (Peng et al., 2004). Protein results were expressed as mg/ml to allow for comparison to other studies. Lavage samples were centrifuged at 500×g on a refrigerated micro centrifuge for 20 min. The supernatant was decanted and aliquot for protein assays. The BAL cells were resuspended in Hank's balanced salt solution and counted using a hemacytometer using standard techniques.
(§5) Re-suspended BAL cells from lung lavage were centrifuged using a Shandon Cytospin-2 at 600 RPM for 15 min, fixed by air-drying, and stained with Diff-Quik dye for differential counts (Peng et al., 2004). Stained cell slides were evaluated and differentially counted for each individual animal (lymphocyte, neutrophil or a macrophage).
(§6) BAL fluid for cytokine measurements was stored at −80° C. until analysis. […]

C57BL/6 mice [3] = test: Intratracheal rhPBEF instillation in spontaneously breathing mice (BAL, tissue albumin, cytokines, histology); type: in vivo, mouse
Protocol: as §1, §2
as §3, with “([…]” for “(20 μg/mouse in 1.5 μl water per gram body weight or vehicle equal volumes”
as §4, §5, §6

[4] = spontaneously breathing mice, rhPBEF

rhPBEF: Recombinant human soluble PBEF/visfatin, a 52 kDa protein containing 465 amino acid residues, purchased from PeproTech
PMN migration across Transwell filters [1]: significant PMN migration beginning after 2 hrs; also recorded: significant PMN migration beginning at 2 hrs
BAL IL-1β (C57BL/6 mice [2]): 53 ± 4 pg/mL
BAL IL-6 (C57BL/6 mice [2]): 957 ± 103 pg/mL
BAL KC (C57BL/6 mice [2]): 2310 ± 263 pg/mL
BAL MIP-2 (C57BL/6 mice [2]): 30480 ± 219 pg/mL
BAL TNF-α (C57BL/6 mice [2]): 985 ± 293 pg/mL
BAL cytospin (400×) (C57BL/6 mice [2]; 20 μg rhPBEF): dramatic influx of neutrophils into the alveolar space
histologic assessment of lung tissue (hematoxylin and eosin) (C57BL/6 mice [2]; intratracheal rhPBEF 30 min prior to mechanical ventilation for 4 hr): greater alveolar wall thickening, and neutrophil infiltration into the lung interstitium and alveolar space; also recorded: dramatically augmented
BAL IL-1β (C57BL/6 mice [3]; SB-rhPBEF): 55 ± 22 pg/mL
BAL TNF-α (C57BL/6 mice [3]; SB-rhPBEF): 262 ± 94 pg/mL
histologic assessment of lung tissue (hematoxylin and eosin) (C57BL/6 mice [3]; SB-rhPBEF, 20 μg/mouse in 30 μl saline intratracheal): mild inflammation; also recorded: macrophage & neutrophil infiltration and edematous alveolar areas
BAL IL-6 (C57BL/6 mice [3]; [4]): 319 ± 67 pg/mL
BAL KC (C57BL/6 mice [3]; [4]): 1388 ± 169 pg/mL
BAL MIP-2 (C57BL/6 mice [3]; [4]): 29026 ± 762 pg/mL
